Test results published in the supplement of paper PMC10307832.

Tests used:
Test in all cases: relative viability (nuclei count vs DMSO), 5 days (fraction); higher = more cells survive
[1] = compound: CN1C=C(C2=CC=CC=C21)/C=C\3/C4=C(C=CC=N4)NC3=O + N=C(N)NC(=N)NCCc1ccccc1 [Phenformin] (partner 250 µM)
Method in brief: (§1)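 Each reported value is a median over duplicate plates. It expresses relative viability: treated-well nuclei count divided by vehicle-well nuclei count. Lung cancer cell lines in 1536-well plates were dosed by pin tool a day after seeding, alone with one drug or with a fixed anchor-drug dose plus five library-drug doses (not always all listed) in √10 steps, and nuclei were counted after 5 days.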

[2] = compound: CN1C=C(C2=CC=CC=C21)/C=C\3/C4=C(C=CC=N4)NC3=O + Cc1nc(Nc2ncc(C(=O)Nc3c(C)cccc3Cl)s2)cc(N2CCN(CCO)CC2)n1 [Dasatinib] (partner 0.075 µM)
Method in brief: as §1

[3] = compound: CN1C=C(C2=CC=CC=C21)/C=C\3/C4=C(C=CC=N4)NC3=O + CC1(C)CCC(c2ccc(Cl)cc2)=C(CN2CCN(c3ccc(C(=O)NS(=O)(=O)c4ccc(N[C@H](CCN5CCOCC5)CSc5ccccc5)c(S(=O)(=O)C(F)(F)F)c4)cc3)CC2)C1 [Navitoclax] (partner 0.5 µM)
Method in brief: as §1

[4] = compound: CN1C=C(C2=CC=CC=C21)/C=C\3/C4=C(C=CC=N4)NC3=O + C[C@]1(O)C[C@@H](c2nc(-c3ccc4ccc(-c5ccccc5)nc4c3)c3c(N)nccn32)C1 [Linsitinib] (partner 1 µM)
Method in brief: as §1

Row | Cell Line | relative viability ([1]; first compound 0.02 µM) | relative viability ([1]; first compound 0.06325 µM) | relative viability ([1]; first compound 0.2 µM) | relative viability ([1]; first compound 0.6325 µM) | relative viability ([1]; first compound 2 µM) | relative viability ([2]; first compound 0.02 µM) | relative viability ([2]; first compound 0.06325 µM) | relative viability ([2]; first compound 0.2 µM) | relative viability ([2]; first compound 0.6325 µM) | relative viability ([2]; first compound 2 µM) | relative viability ([3]; first compound 0.02 µM) | relative viability ([3]; first compound 0.06325 µM) | relative viability ([3]; first compound 0.2 µM) | relative viability ([3]; first compound 0.6325 µM) | relative viability ([3]; first compound 2 µM) | relative viability ([4]; first compound 0.02 µM) | relative viability ([4]; first compound 0.06325 µM) | relative viability ([4]; first compound 0.2 µM) | relative viability ([4]; first compound 0.6325 µM) | relative viability ([4]; first compound 2 µM)
1 | NCI-H1651 | 0.377 | 0.344 | 0.305 | 0.327 | 0.397 | 0.522 | 0.534 | 0.353 | 0.464 | 0.345 | 0.955 | 0.969 | 1.24 | 1.05 | 1.15 | 0.958 | 0.989 | 1.03 | 1.06 | 1.05
2 | A549 | 0.16 | 0.101 | 0.181 | 0.114 | 0.183 | – | – | – | – | – | 1.36 | 1.27 | 1.15 | 1.24 | 1.15 | 0.596 | 0.512 | – | 0.543 | 0.586
3 | HCC-366 | 0.578 | 0.641 | 0.602 | 0.664 | 0.667 | 0.641 | 0.455 | 0.44 | 0.593 | 0.468 | 0.945 | 0.994 | 1.13 | 1.07 | 0.986 | 0.616 | 0.566 | 0.656 | 0.575 | 0.51
4 | EKVX | 0.206 | 0.227 | 0.226 | 0.201 | 0.236 | 0.411 | 0.427 | 0.464 | 0.449 | 0.358 | 0.909 | 0.774 | 0.811 | 0.7 | 0.772 | 0.911 | 0.926 | 0.921 | 0.729 | 0.883
5 | NCI-H1993 | 0.544 | 0.432 | 0.431 | 0.55 | 0.509 | 0.537 | 0.59 | 0.523 | 0.468 | 0.951 | 0.726 | 0.768 | 0.894 | 0.682 | 0.856 | 0.539 | 0.635 | 0.71 | 0.765 | 0.621
6 | NCI-H522 | 0.579 | 0.672 | 0.703 | 0.58 | 0.644 | 0.896 | 0.803 | 0.844 | 0.784 | 0.874 | – | – | – | – | – | – | – | – | – | –
7 | NCI-H1703 | – | – | – | – | – | – | – | – | – | – | 1.06 | 1.03 | 1.01 | 0.966 | 0.998 | 0.489 | 0.848 | 0.581 | 0.94 | 1.02
8 | NCI-H23 | 0.829 | 0.77 | 0.693 | 0.718 | 0.797 | 0.769 | 0.741 | 0.518 | 0.698 | 0.8 | 0.558 | 0.764 | – | 0.807 | 0.931 | 0.614 | 0.648 | – | 0.655 | 0.631
9 | HCC-827 | 0.405 | 0.413 | – | 0.465 | 0.388 | 0.296 | 0.354 | – | 0.28 | 0.427 | 0.956 | 1.02 | – | 1.03 | 0.986 | 0.929 | 0.923 | – | 0.944 | 0.926
10 | PC-3 [JPC-3] | 0.472 | 0.44 | 0.434 | 0.425 | 0.497 | 1.04 | 0.888 | 1.02 | 0.866 | 1.02 | 0.782 | 0.743 | 0.788 | 0.812 | 0.683 | 0.947 | 0.902 | 0.974 | 0.889 | 0.917
11 | IA-LM | – | – | – | – | – | – | – | – | – | – | 1.05 | 0.833 | 0.731 | 0.749 | 0.541 | 0.85 | 0.668 | 0.477 | 0.762 | 0.771
12 | SW 900 | 0.468 | 0.434 | – | 0.589 | 0.809 | 0.495 | 0.585 | – | 0.537 | 0.481 | – | – | – | – | – | – | – | – | – | –
13 | NCI-H358 | 0.301 | 0.316 | 0.311 | 0.4 | 0.4 | 0.145 | 0.166 | 0.174 | 0.186 | 0.198 | – | – | – | – | – | 0.632 | 0.643 | 0.881 | 0.795 | 0.686
14 | NCI-H1563 | 0.627 | 0.64 | 0.635 | 0.672 | 0.684 | 0.472 | 0.437 | 0.444 | 0.488 | 0.414 | – | – | – | – | – | 1.24 | 1.17 | 1.11 | 1.17 | 1.26
15 | LCLC-103H | 0.303 | 0.256 | 0.317 | 0.322 | 0.331 | 0.516 | 0.355 | 0.481 | 0.417 | 0.478 | – | – | – | – | – | 1.13 | 1.13 | 1.07 | 1.13 | 1.11
16 | NCI-H2342 | 0.623 | 0.641 | 0.486 | 0.57 | 0.505 | 0.316 | 0.313 | 0.284 | 0.304 | 0.318 | – | – | – | – | – | – | – | – | – | –
17 | ChaGo-K-1 | 0.419 | 0.492 | 0.41 | 0.522 | 0.471 | 0.477 | 0.544 | 0.418 | 0.587 | 0.576 | 0.816 | 0.939 | – | 0.902 | 0.801 | – | – | – | – | –
18 | NCI-H2170 | 0.354 | 0.366 | 0.327 | 0.405 | 0.4 | 0.442 | 0.581 | 0.525 | 0.468 | 0.597 | – | 0.604 | 0.527 | 0.543 | 0.541 | – | – | – | – | –
19 | Calu-6 | – | – | – | – | – | – | – | – | – | – | 0.804 | 0.772 | 0.746 | 0.908 | 0.859 | 0.926 | 0.903 | 0.919 | 0.975 | 0.915
20 | NCI-H1299 | – | – | – | – | – | – | – | – | – | – | 1.04 | 0.988 | 1.02 | 1.12 | 1.02 | 1.07 | 1.03 | 1.06 | 1.06 | 1.05
21 | EBC-1 | – | – | – | – | – | – | – | – | – | – | 0.37 | 0.426 | 0.384 | 0.48 | 0.498 | 1.03 | 0.873 | 0.723 | 0.922 | 0.971
22 | NCI-H650 | 0.474 | 0.481 | – | 0.421 | 0.404 | 0.519 | 0.494 | – | 0.415 | 0.39 | – | – | – | – | – | 0.91 | 0.955 | – | 0.677 | 0.807
